The subject of series [1] is PNH patients with active hemolysis despite treatment with eculizumab. The experiment in a line: Phase 2 study CLNP023X2201 interim analysis: LNP023 hydrochloride add-on to eculizumab in PNH patients with active hemolysis. In kind it is in vivo, human. The procedure: (§1) The dose of 200 mg LNP023 hydrochloride b.i.d. as continuous treatment has been selected for this Phase 3 study primarily based on the available efficacy and safety data obtained at the time of interim analyses from the two ongoing Phase 2 PNH studies (ClinicalTrials.gov Identifier: NCT03439839 and NCT03896152) and is supported by PKPD modeling results.
In the CLNP023X2201 study in patients with active hemolysis despite treatment with eculizumab, LNP023 hydrochloride at a dose of 200 mg b.i.d. was administered to 10 PNH participants (cohort 1) and at a dose of 50 mg b.i.d. to 6 PNH participants (cohort 2). An interim analysis (IA) was conducted after 10 participants (cohort 1) completed at least 12 weeks of treatment with LNP023 hydrochloride 200 mg b.i.d. add-on treatment to eculizumab.
(§2) The hematological response participants achieved with LNP023 hydrochloride 200 mg b.i.d. add-on therapy was maintained with LNP023 hydrochloride monotherapy during the extension period (at the time of the IA) when eculizumab treatment was discontinued in 5/10 participants who continued with LNP023 hydrochloride monotherapy. Following the IA, two additional participants discontinued eculizumab treatment.

In series [2] the test system is anti-C5 antibody treatment naive PNH patients. The experiment in a line: Phase 2 study interim analysis: LNP023 hydrochloride monotherapy in anti-C5 antibody treatment naive PNH patients. In kind it is in vivo, human. As for the experimental part:
as §1
In the Phase 2 study (NCT03439839) in anti-C5 antibody treatment naive patients, participants received LNP023 hydrochloride monotherapy with sequential dose increments at Week 4 from LNP023 hydrochloride 25 mg b.i.d. to 100 mg b.i.d (sequence 1) or LNP023 hydrochloride 50 mg b.i.d. to 200 mg b.i.d. (sequence 2). An IA was conducted after 8 patients were randomized and 7 patients completed Week 8 visit assessments.
as §2

Series [3] deals with patients with IgA nephropathy. The series can be described thus: Study CLNP023X2203, safety and tolerability. In kind it is in vivo, human. The settings on record: 200 mg b.i.d.
Series [4] concerns patients with C3 glomerulopathy. The series can be described thus: Study CLNP023X2202, safety and tolerability. It counts as in vivo, human. The note with it: 200 mg b.i.d.
Series [5] relates to alternative pathway. The experiment in a line: Exposure-response model from First In Human study data (Wieslab assay). The note with it: dose of about 200 mg b.i.d., in >70% of subjects; model built on healthy volunteer data. As for the experimental part:
The exposure-response model developed with data from the First In Human (FIH) study with LNP023 hydrochloride in healthy volunteers predicts that a dose of about 200 mg b.i.d. would be needed to achieve >90% inhibition of the alternative pathway (Wieslab assay) in >70% of subjects. Given the risk of hemolysis and breakthroughs in cases of insufficient inhibition of complement activity, full inhibition is desired and modelling results provide additional support for the choice of the dose of 200 mg b.i.d. for PNH.

The mark [6] stands for this setting: 200 mg b.i.d. added to eculizumab.
Where [7] appears, read: 200 mg b.i.d. as add-on to eculizumab, cohort 1, interim analysis.
Setting [8] is: 200 mg b.i.d., PNH participants.

Structures can show the parent of a compound that is named as a salt. Some results are limits rather than exact numbers.

As to `CCO[C@H]1CCN(Cc2c(OC)cc(C)c3[nH]ccc23)[C@H](c2ccc(C(=O)O)cc2)C1` [LNP023 hydrochloride, 4-((2S,4S)-(4-ethoxy-1-((5-methoxy-7-methyl-1H-indol-4-yl)methyl)piperidin-2-yl))benzoic acid hydrochloride], in series [1] (setting [6]), the C3 deposition result is “fully reversed”; the “Fragment Bb (target engagement)” value is “profound and sustained reduction”; the “inhibition of the complement alternative pathway” value is recorded as “sustained inhibition”; the “survival of PNH red blood cells” value is “prolonged”. In addition, in series [1] (setting [7]), the “bilirubin (control of EVH)” value was “reduction”, the “haptoglobin (control of EVH)” value is listed as “increase”, the “hemoglobin in the absence of red blood cell transfusions” value is “normalization of hemoglobin in the majority of patients” and the “reticulocytes (control of EVH)” value is given as “reduction”. Besides, the “control of IVH demonstrated by LDH” value in series [1] (200 mg b.i.d. as add-on to eculizumab, cohort 1, interim analysis after at least 12 weeks) was “LDH reduction”. The “hematological response during the extension period after eculizumab was discontinued” value in series [1] (200 mg b.i.d. monotherapy, 5/10 participants who discontinued eculizumab) is given as “maintained”. In series [1] (setting [8]), the safety and tolerability entry was “safe and well tolerated”. Moreover, the “response at 50 mg b.i.d.” value in series [1] (cohort 2, 50 mg b.i.d., preliminary, three participants required up-titration to 200 mg b.i.d.) is reported as “suboptimal response”. In series [2] (setting [8]), the safety and tolerability result is “safe and well tolerated”. In series [2] (monotherapy), the “bilirubin (extravascular hemolysis)” value is recorded as “decrease”, the “haptoglobin (extravascular hemolysis)” value was “increase” and the “reticulocytes (extravascular hemolysis)” value is “decrease”. Besides, the transfusion-free hemoglobin result in series [2] (monotherapy, dose levels ≥25 mg b.i.d.) is listed as “early transfusion-free hemoglobin increase in the majority of participants”. Further, the “LDH reduction from baseline” value in series [2] (monotherapy, dose levels ≥25 mg b.i.d., all participants) is recorded as “more than 60%”. Moreover, the safety and tolerability result in series [3] is “safe and well tolerated”. The safety and tolerability result in series [4] is “safe and well tolerated”. Further, the “predicted inhibition of the alternative pathway (Wieslab assay)” value in series [5] is recorded as more than 90%.
